{"source": "patent US20250163038A1", "about": "“CBL-B MODULATORS AND USES THEREOF” (Nimbus Clio, Inc., priority 2021, published 2025)", "key": {"[1]": {"target": "Recombinant human Cbl-b (aa 36-427) (Homo sapiens, UniProt Q13191)", "sequence (Q13191 36-427)": "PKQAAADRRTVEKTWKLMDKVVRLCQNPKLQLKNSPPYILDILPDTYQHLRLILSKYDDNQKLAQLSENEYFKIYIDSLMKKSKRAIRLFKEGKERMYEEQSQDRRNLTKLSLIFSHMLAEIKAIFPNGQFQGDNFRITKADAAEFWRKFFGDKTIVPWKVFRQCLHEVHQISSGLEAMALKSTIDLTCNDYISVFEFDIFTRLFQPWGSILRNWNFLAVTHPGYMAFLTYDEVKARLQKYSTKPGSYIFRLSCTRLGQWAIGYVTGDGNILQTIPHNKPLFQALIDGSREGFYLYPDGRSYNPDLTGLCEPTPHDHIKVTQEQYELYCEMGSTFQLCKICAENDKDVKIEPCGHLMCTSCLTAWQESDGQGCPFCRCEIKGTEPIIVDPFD", "assay": "Cbl-b Biochemical Assay (TR-FRET)", "conditions": "read-out: TR-FRET hCbl-b IC50"}, "[2]": {"test_system": "Jurkat (clone E6-1) cells with NFAT luciferase reporter", "assay": "Jurkat reporter assay (NFAT Luciferase)", "assay_type": "cell-based", "conditions": "Homo sapiens; Jurkat NFAT luciferase reporter cells, anti-CD3 stimulation, 6 hr; read-out: Jurkat NFAT EC50"}, "[3]": {"target": "T1, Recombinant human c-Cbl (aa 47-435) (Homo sapiens, UniProt P22681)", "T1 sequence (P22681 47-435)": "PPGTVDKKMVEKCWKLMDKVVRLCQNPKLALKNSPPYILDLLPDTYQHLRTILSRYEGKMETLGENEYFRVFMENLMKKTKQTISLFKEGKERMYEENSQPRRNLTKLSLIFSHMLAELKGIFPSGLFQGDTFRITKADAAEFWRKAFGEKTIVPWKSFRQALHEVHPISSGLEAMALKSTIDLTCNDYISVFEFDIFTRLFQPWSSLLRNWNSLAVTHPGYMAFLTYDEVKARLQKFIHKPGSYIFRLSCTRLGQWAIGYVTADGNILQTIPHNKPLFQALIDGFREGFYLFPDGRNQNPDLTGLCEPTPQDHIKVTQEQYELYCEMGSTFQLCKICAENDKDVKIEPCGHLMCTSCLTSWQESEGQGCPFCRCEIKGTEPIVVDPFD", "assay": "c-Cbl Biochemical Assay (TR-FRET)", "conditions": "hc-Cbl Biochemical Assay (TR-FRET); read-out: TR-FRET hcCbl IC50"}}}
{"compound": "COCCNCc1cc(C)c2oc(-c3cccc(-c4ccc(F)cc4-c4nncn4C)c3)nc2c1F", "note": "[JC-1, N-((4-Fluoro-2-(4′-fluoro-2′-(4-methyl-4H-1,2,4-triazol-3-yl)-[1,1′-biphenyl]-3-yl)-7-methylbenzo[d]oxazol-5-yl)methyl)-2-methoxyethan-1-amine]", "values": [{"measurement": "IC50", "setting": "[1]", "result": "200 to 1000", "unit": "nM"}, {"measurement": "EC50", "setting": "[2]", "result": "1000 to 10000", "unit": "nM"}, {"measurement": "IC50", "setting": "[3]", "result": "1000 to 10000", "unit": "nM"}]}
{"compound": "Cn1cnnc1-c1cc(F)ccc1-c1cccc(-c2nc3cc(CN[C@@H]4CCC[C@@H]4O)ccc3o2)c1", "note": "[CM-1, (1S,2R)-2-(((2-(4′-Fluoro-2′-(4-methyl-4H-1,2,4-triazol-3-yl)-[1,1′-biphenyl]-3-yl)benzo[d]oxazol-5-yl)methyl)amino)cyclopentan-1-ol]", "values": [{"measurement": "IC50", "setting": "[1]", "result": "< 200", "unit": "nM"}, {"measurement": "EC50", "setting": "[2]", "result": "< 200", "unit": "nM"}, {"measurement": "IC50", "setting": "[3]", "result": "< 200", "unit": "nM"}]}
{"compound": "Cn1cnnc1-c1cc(F)ccc1-c1cccc(-c2nc3cc(CN[C@@H]4CCC[C@@H]4O)cc(C(C)(F)F)c3o2)c1", "note": "[FJ-2, (1S,2R)-2-(((7-(1,1-Difluoroethyl)-2-(4′-fluoro-2′-(4-methyl-4H-1,2,4-triazol-3-yl)-[1,1′-biphenyl]-3-yl)benzo[d]oxazol-5-yl)methyl)amino)cyclopentan-1-ol]", "values": [{"measurement": "IC50", "setting": "[1]", "result": "< 200", "unit": "nM"}, {"measurement": "EC50", "setting": "[2]", "result": "< 200", "unit": "nM"}, {"measurement": "IC50", "setting": "[3]", "result": "< 200", "unit": "nM"}]}
{"compound": "Cn1cnnc1-c1cc(F)ccc1-c1cc(-c2nc3cc(CN[C@@H]4CCC[C@@H]4O)cc(C(F)(F)F)c3[nH]2)nc(C2CC2)c1", "note": "[ADV-2, (1S,2R)-2-{[(2-{6-Cyclopropyl-4-[4-fluoro-2-(4-methyl-1,2,4-triazol-3-yl)phenyl]pyridin-2-yl}-7-(trifluoromethyl)-1H-1,3-benzodiazol-5-yl)methyl]amino}cyclopentan-1-ol]", "values": [{"measurement": "IC50", "setting": "[1]", "result": "< 200", "unit": "nM"}, {"measurement": "EC50", "setting": "[2]", "result": "< 200", "unit": "nM"}, {"measurement": "IC50", "setting": "[3]", "result": "< 200", "unit": "nM"}]}
{"compound": "Cc1cc(C(C)(C)N)cc2nc(-c3cc(-c4ccc(F)cc4-c4nncn4C)cc(C4CC4)n3)oc12", "note": "[AGR-9, 2-(2-{6-Cyclopropyl-4-[4-fluoro-2-(4-methyl-1,2,4-triazol-3-yl)phenyl]pyridin-2-yl}-7-methyl-1,3-benzoxazol-5-yl)propan-2-amine]", "values": [{"measurement": "IC50", "setting": "[1]", "result": "200 to 1000", "unit": "nM"}, {"measurement": "EC50", "setting": "[2]", "result": "1000 to 10000", "unit": "nM"}, {"measurement": "IC50", "setting": "[3]", "result": "1000 to 10000", "unit": "nM"}]}
{"compound": "Cc1cc(CO)cc2nc(-c3cc(-c4ccc(F)cc4-c4nncn4C)cc(C4CC4)n3)oc12", "note": "[AET-1, (2-{6-Cyclopropyl-4-[4-fluoro-2-(4-methyl-1,2,4-triazol-3-yl)phenyl]pyridin-2-yl}-7-methyl-1,3-benzoxazol-5-yl)methanol]", "values": [{"measurement": "IC50", "setting": "[1]", "result": "200 to 1000", "unit": "nM"}, {"measurement": "EC50", "setting": "[2]", "result": "1000 to 10000", "unit": "nM"}, {"measurement": "IC50", "setting": "[3]", "result": "1000 to 10000", "unit": "nM"}]}
{"compound": "Cn1cnnc1-c1cc(F)ccc1-c1cccc(-c2nc3cc(CNCC4CCC4)cc(C(F)(F)F)c3o2)c1", "note": "[EM-2, 1-Cyclobutyl-N-((2-(4′-fluoro-2′-(4-methyl-4H-1,2,4-triazol-3-yl)-[1,1′-biphenyl]-3-yl)-7-(trifluoromethyl)benzo[d]oxazol-5-yl)methyl)methanamine]", "values": [{"measurement": "IC50", "setting": "[1]", "result": "< 200", "unit": "nM"}, {"measurement": "EC50", "setting": "[2]", "result": "< 200", "unit": "nM"}, {"measurement": "IC50", "setting": "[3]", "result": "< 200", "unit": "nM"}]}
{"compound": "CO[C@@H](C)[C@H](C)NCc1cc(C)c2oc(-c3cc(-c4ccc(F)cc4-c4nncn4C)cc(C4CC4)n3)nc2c1", "note": "[AGC-2, [(2-{6-Cyclopropyl-4-[4-fluoro-2-(4-methyl-1,2,4-triazol-3-yl)phenyl]pyridin-2-yl}-7-methyl-1,3-benzoxazol-5-yl)methyl][(2S,3S)-3-methoxybutan-2-yl]amine]", "values": [{"measurement": "IC50", "setting": "[1]", "result": "< 200", "unit": "nM"}, {"measurement": "EC50", "setting": "[2]", "result": "< 200", "unit": "nM"}, {"measurement": "IC50", "setting": "[3]", "result": "< 200", "unit": "nM"}]}
{"compound": "Cn1cnnc1-c1cc(F)ccc1-c1cccc(-c2nc3cc(CN[C@@H]4CCC[C@@H]4O)cc(C(C)(C)C)c3o2)c1", "note": "[EV-9, (1S,2R)-2-(((7-(tert-Butyl)-2-(4′-fluoro-2′-(4-methyl-4H-1,2,4-triazol-3-yl)-[1,1′-biphenyl]-3-yl)benzo[d]oxazol-5-yl)methyl)amino)cyclopentan-1-ol]", "values": [{"measurement": "IC50", "setting": "[1]", "result": "< 200", "unit": "nM"}, {"measurement": "EC50", "setting": "[2]", "result": "< 200", "unit": "nM"}, {"measurement": "IC50", "setting": "[3]", "result": "< 200", "unit": "nM"}]}
{"compound": "COCCNCc1cc(C)c2oc(-c3cc(-c4ccc(F)cc4-c4nncn4C)cc(C4CC4)n3)nc2c1", "note": "[AEZ-1, [(2-{6-Cyclopropyl-4-[4-fluoro-2-(4-methyl-1,2,4-triazol-3-yl)phenyl]pyridin-2-yl}-7-methyl-1,3-benzoxazol-5-yl)methyl](2-methoxyethyl)amine]", "values": [{"measurement": "IC50", "setting": "[1]", "result": "< 200", "unit": "nM"}, {"measurement": "EC50", "setting": "[2]", "result": "< 200", "unit": "nM"}, {"measurement": "IC50", "setting": "[3]", "result": "< 200", "unit": "nM"}]}
{"compound": "Cn1cnnc1-c1cc(C#N)ccc1-c1cc(-c2nc3cc(CNCC4CCC4)cc(F)c3o2)nc(C2CC2)c1", "note": "[AHE-2, 4-[2-(5-{[(cyclobutylmethyl)amino]methyl}-7-fluoro-1,3-benzoxazol-2-yl)-6-cyclopropylpyridin-4-yl]-3-(4-methyl-1,2,4-triazol-3-yl) benzonitrile]", "values": [{"measurement": "IC50", "setting": "[1]", "result": "< 200", "unit": "nM"}, {"measurement": "EC50", "setting": "[2]", "result": "< 200", "unit": "nM"}, {"measurement": "IC50", "setting": "[3]", "result": "< 200", "unit": "nM"}]}
{"compound": "Cn1cnnc1-c1cc(F)ccc1-c1cccc(-c2nc3cc(CNCC(C)(C)O)cc(C(F)(F)F)c3[nH]2)c1", "note": "[BT-1, 1-(((2-(4′-Fluoro-2′-(4-methyl-4H-1,2,4-triazol-3-yl)-[1,1′-biphenyl]-3-yl)-7-(trifluoromethyl)-1H-benzo[d]imidazol-5-yl)methyl)amino)-2-methylpropan-2-ol]", "values": [{"measurement": "IC50", "setting": "[1]", "result": "< 200", "unit": "nM"}, {"measurement": "EC50", "setting": "[2]", "result": "200 to 1000", "unit": "nM"}, {"measurement": "IC50", "setting": "[3]", "result": "1000 to 10000", "unit": "nM"}]}
{"compound": "Cn1cnnc1-c1cc(F)ccc1-c1cc(-c2nc3cc(CNCC4(O)CCC4)ccc3o2)nc(C2CC2)c1", "note": "[AFC-1, 1-({[(2-{6-Cyclopropyl-4-[4-fluoro-2-(4-methyl-1,2,4-triazol-3-yl)phenyl]pyridin-2-yl}-1,3-benzoxazol-5-yl)methyl]amino}methyl)cyclobutan-1-ol]", "values": [{"measurement": "IC50", "setting": "[1]", "result": "< 200", "unit": "nM"}, {"measurement": "EC50", "setting": "[2]", "result": "< 200", "unit": "nM"}, {"measurement": "IC50", "setting": "[3]", "result": "< 200", "unit": "nM"}]}
{"compound": "Cn1cnnc1-c1cc(F)ccc1-c1cccc(-c2nc3cc(CNCC4(O)CC(F)(F)C4)cc(C(F)(F)F)c3[nH]2)c1", "note": "[CK-2, 3,3-Difluoro-1-((((2-(4′-fluoro-2′-(4-methyl-4H-1,2,4-triazol-3-yl)-[1,1′-biphenyl]-3-yl)-7-(trifluoromethyl)-1H-benzo[d]imidazol-5-yl)methyl)amino)methyl)cyclobutan-1-ol]", "values": [{"measurement": "IC50", "setting": "[1]", "result": "< 200", "unit": "nM"}, {"measurement": "EC50", "setting": "[2]", "result": "< 200", "unit": "nM"}, {"measurement": "IC50", "setting": "[3]", "result": "< 200", "unit": "nM"}]}
{"compound": "CN(Cc1cc(Cl)c2oc(-c3cccc(-c4ccc(F)cc4-c4nncn4C)c3)nc2c1)[C@@H]1CCC[C@@H]1O", "note": "[HS-3, (1S,2R)-2-(((7-Chloro-2-(4′-fluoro-2′-(4-methyl-4H-1,2,4-triazol-3-yl)-[1,1′-biphenyl]-3-yl)benzo[d]oxazol-5-yl)methyl)(methyl)amino)cyclopentan-1-ol]", "values": [{"measurement": "IC50", "setting": "[1]", "result": "< 200", "unit": "nM"}, {"measurement": "EC50", "setting": "[2]", "result": "< 200", "unit": "nM"}, {"measurement": "IC50", "setting": "[3]", "result": "< 200", "unit": "nM"}]}
{"compound": "Cn1cnnc1-c1cc(C#N)ccc1-c1cccc(-c2nc3cc(CO)cc(C(F)(F)F)c3o2)c1", "note": "[CL-2, 3′-(5-(Hydroxymethyl)-7-(trifluoromethyl)benzo[d]oxazol-2-yl)-2-(4-methyl-4H-1,2,4-triazol-3-yl)-[1,1′-biphenyl]-4-carbonitrile]", "values": [{"measurement": "IC50", "setting": "[1]", "result": "< 200", "unit": "nM"}, {"measurement": "EC50", "setting": "[2]", "result": "1000 to 10000", "unit": "nM"}, {"measurement": "IC50", "setting": "[3]", "result": "200 to 1000", "unit": "nM"}]}
{"compound": "C[C@H]1CCCN(Cc2cc(C(F)(F)F)c3[nH]c(-c4cccc(-c5ccc(F)cc5-c5nncn5C)c4)nc3c2)C1", "note": "[BO-2, (S)-2-(4′-Fluoro-2′-(4-methyl-4H-1,2,4-triazol-3-yl)-[1,1′-biphenyl]-3-yl)-5-((3-methylpiperidin-1-yl)methyl)-7-(trifluoromethyl)-1H-benzo[d]imidazole]", "values": [{"measurement": "IC50", "setting": "[1]", "result": "< 200", "unit": "nM"}, {"measurement": "EC50", "setting": "[2]", "result": "200 to 1000", "unit": "nM"}, {"measurement": "IC50", "setting": "[3]", "result": "1000 to 10000", "unit": "nM"}]}
{"compound": "Cc1cc(CNCC2(O)CCC2)cc2nc(-c3cc(-c4ccc(F)cc4-c4nncn4C)cc(C4CC4)n3)oc12", "note": "[AEV-1, 1-({[(2-{6-Cyclopropyl-4-[4-fluoro-2-(4-methyl-1,2,4-triazol-3-yl)phenyl]pyridin-2-yl}-7-methyl-1,3-benzoxazol-5-yl)methyl]amino}methyl)cyclobutan-1-ol]", "values": [{"measurement": "IC50", "setting": "[1]", "result": "< 200", "unit": "nM"}, {"measurement": "EC50", "setting": "[2]", "result": "< 200", "unit": "nM"}, {"measurement": "IC50", "setting": "[3]", "result": "< 200", "unit": "nM"}]}
